Tests used:
Adenosine receptor A1 = target: T1, Adenosine receptor A1 (Homo sapiens, UniProt P30542); assay: Compound was evaluated for the Adenosine A1 receptor agonist potency.; assay type: functional, Cricetulus griseus
T1 sequence (P30542 whole entry): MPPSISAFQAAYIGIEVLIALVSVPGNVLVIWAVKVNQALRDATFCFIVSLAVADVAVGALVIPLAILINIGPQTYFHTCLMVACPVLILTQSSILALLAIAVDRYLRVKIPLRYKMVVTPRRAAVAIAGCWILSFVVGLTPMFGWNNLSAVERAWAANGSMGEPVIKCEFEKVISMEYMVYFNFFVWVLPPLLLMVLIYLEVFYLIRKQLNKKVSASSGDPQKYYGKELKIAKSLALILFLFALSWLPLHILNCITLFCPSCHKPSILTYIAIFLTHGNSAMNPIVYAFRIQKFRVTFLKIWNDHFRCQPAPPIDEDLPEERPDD

[1] = Compound was evaluated for the maximal inhibition of (-)-isoproterenol stimulated cAMP accumulation in DDT-1 MF-2 cells; assay type: functional, Cricetulus griseus

| Compound | EC50 (Adenosine receptor A1) | Max inhibition [1] |
| --- | --- | --- |
| OC[C@H]1O[C@@H](n2cnc3c(N[C@H]4CC5CC4C4OC54)ncnc32)[C@H](O)[C@@H]1O (stereo not given in full) | 0.81 nM | 81% |
| OC[C@H]1O[C@@H](n2cnc3c(NC4CCCC4)ncnc32)[C@H](O)[C@@H]1O [N6-CYCLOPENTYLADENOSINE] |  | 80% |
| OC[C@H]1O[C@@H](n2cnc3c(N[C@@H]4CC5CC4C4OC54)ncnc32)[C@H](O)[C@@H]1O (stereo not given in full) | 10 nM | 82% |

— ChEMBL document CHEMBL1129007, “The design and synthesis of novel adenosine agonists” (Bioorg Med Chem Lett, 1996)
